Laboratory results reported in patent US5705533A, “10-thio-substituted 1,8-dihydroxy-9 (10H) -anthracenone pharmaceuticals” (Teva Pharmaceutical Industries Ltd., priority 1995, dated 1998).
Where two headings read alike, the source gives them in different places.

Legend:
HaCaT cells = test: Antiproliferative Activity Assay, HaCaT cell growth; type: cell-based, human; conditions: 48 h
Method: HaCaT cells, a rapidly multiplying human keratinocyte cell line, were grown in Dulbecco's modified Eagle medium (DMEM), No. 041-11965A, Gibco) supplemented with 10% fetal calf serum, penicillin (100U/ml), streptomycin (100 μg/ml) in a humidified incubator containing 8% CO2 at 37° C. Cells ([…] /1.1 ml suspension per well) were seeded on 24-wells-multidishes and grown in DMEM. After 24 hours growth the medium was replaced with fresh medium and the test compounds (0.1-5 μM) were added. […] Controls were performed with DMSO or with medium alone. Forty-eight hours after addition of the test compound to the culture, the medium was removed and each well was rinsed with 100 μL PBS. The cells were then incubated with sterile 0.5% trypsin, 0.2% EDTA in PBS for 20 minutes at 37° C. The detached cells from each well were suspended in DMEM and dispersed into single cells by gentle pipetting through an Eppendorf pipette, and cell growth was determined directly by counting the keratinocytes in a Neubauer counting chamber using phase contrast microscopy. Inhibition was calculated by comparison of the mean values of the test compound (N=3) with the control (N=6-8) activity: (1-test compound/control)×100.

5-LO = target: T1, 5-LO (Bos taurus, UniProt F1MQ78); test: Bovine PMNL 5-Lipoxygenase Assay (inhibition of 5-HETE and LTB4 biosynthesis); type: cell-based; conditions: for inhibition at 30 µM: PMNL, read-out: 5-LO percent inhibition
T1 construct: Polymorphonuclear leukocytes (PMNL) were prepared from sodium EDTA-anticoagulated bovine blood; endogenous in cells; host or cells: bovine polymorphonuclear leukocytes isolated from EDTA-anticoagulated blood (intact cells, A23187-stimulated)
T1 sequence (F1MQ78 1-674): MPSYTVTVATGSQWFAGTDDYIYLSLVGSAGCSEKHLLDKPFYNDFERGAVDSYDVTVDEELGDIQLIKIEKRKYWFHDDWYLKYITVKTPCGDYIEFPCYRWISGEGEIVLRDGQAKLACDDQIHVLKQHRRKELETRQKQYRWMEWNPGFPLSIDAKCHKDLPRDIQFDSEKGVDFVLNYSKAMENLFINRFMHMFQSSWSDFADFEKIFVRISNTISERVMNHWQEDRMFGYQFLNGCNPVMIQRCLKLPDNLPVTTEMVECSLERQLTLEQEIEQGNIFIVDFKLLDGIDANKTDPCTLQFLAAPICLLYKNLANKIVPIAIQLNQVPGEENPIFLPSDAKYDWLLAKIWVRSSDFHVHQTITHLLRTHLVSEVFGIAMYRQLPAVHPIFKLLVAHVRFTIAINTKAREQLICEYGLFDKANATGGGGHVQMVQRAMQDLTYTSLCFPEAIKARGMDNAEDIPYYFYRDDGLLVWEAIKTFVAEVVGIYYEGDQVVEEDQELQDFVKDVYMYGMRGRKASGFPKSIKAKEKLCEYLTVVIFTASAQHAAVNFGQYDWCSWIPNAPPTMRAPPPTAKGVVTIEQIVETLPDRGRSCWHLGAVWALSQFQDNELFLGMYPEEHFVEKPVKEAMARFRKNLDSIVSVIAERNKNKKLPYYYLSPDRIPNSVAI
Method: Polymorphonuclear leukocytes (PMNL) were prepared from sodium EDTA-anticoagulated bovine blood, essentially as described by Walstra, P. et al., "Leukotriene Formation by Bovine Polymorphonuclear Leukocytes", Biochim. Biophys. Acta, 795,499-503 (1984). Contaminating platelets were removed by repeated centrifugations at 100 g for 20 min. The purified PMN leukocytes were suspended at a concentration of 1×10^7 cells/ml in phosphate buffered saline (PBS, composed of 8.00 g NaCl, 0.20 g KCl, 1.00 g Na2 HPO4 .cndot.2H2 O, 0.15 g NaH2 PO4 .cndot.H2 O, 0.20 g KH2 PO4, adjusted to pH 7.4 with 3 N NH3 in a final volume of 1000 ml of double distilled H2 O). Cell counts were conducted with a Sysmex microcellcounter CC-130. Preincubation was performed with 2.4 ml of the suspension and 10 μl of a DMSO stock solution of each test compound at the desired concentration in PBS or vehicle control (DMSO at final concentration of 0.4%) for 15 min at 37° C. in a shaking water bath. The syntheses of LTB 4 and 5-HETE were stimulated by the addition of CaCl2 and Ca-ionophore A23187 (final concentrations 2 mM and 20 μM, respectively), and the incubation was conducted for 10 min at 37° C. 5-LO product formation was terminated by the addition of 3.0 ml of methanol/acetonitrile (1+1) containing NDGA as radical scavenger (final concentration 0.01 mM) and prostaglandin B2 PG B2 as chromatographic marker (final concentration 0.3 μM). The incubation mixture was kept in an ice bath for 20 min and then centrifuged at 4000 g for 5 min at 0° C. The supernatant was diluted with 5 ml of water and passed through a prewashed (10 ml of methanol and 5 ml of water, sequentially) octadecylsilane reversed phase cartridge (Baker). The eicosanoids were eluted with 3 ml of methanol, diluted with 3 ml of water and subjected to reversed phase high performance liquid chrometography (HPLC) analysis, performed on a 250×4 mm column packed with Nucleosil C18 (7 μm particles; Bischoff, Leonberg, Germany). The isocratic elution conditions of LTB4 were tetrahydrofuran (THF)/methanol/water/acetic acid (25+30+45+0.1), adjusted to pH 5.5 with concentrated NH3, at a flow rate of 0.9 ml/min (Kontron 420 pump), monitored at 280 nm with a Kontron 735 LC UV detector, whereas 5-HETE was monitored at 232 nm using methanol/water/acetic acid (77+23+0.1), pH 5.5,flow rate 1.0ml/min. Data were recorded on a MacLab data acquisition system (WissTech, Germany) and analysis was performed with the application Peaks on an Apple Macintosh Quadra 700 computer. Integrated areas of the peaks were compared to the PGB2 internal standard and to external standards of test samples. Molar absorption coefficients of Samuelsson et al., Borgeat, P. and B. Samuelsson, "Arachidonic Acid Metabolism in Polymorphonuclear Leukocytes: Effects of Ionophore A23187", Proc. Nat. Acad. Sci. USA, 76, 2148-2152 (1979), were used for calculations. Inhibition was calculated by comparison of the mean values of test compound (n=3) with control (n=6-8) activity: (1-test compound/control)×100.
By the above method, the anthracenone derivatives of the invention were evaluated for their ability to inhibit the production of LTB4 and 5-HETE in isolated bovine polymorphonuclear leucocytes (PMNL), see Walstra, P. et al., "Leukotriene Formation by Bovine Polymorphonuclear Leukocytes", Biochim. Biophys. Acta, 795,499-503 (1984); Dannhardt, G. and also M. Lehr, "In-Vitro Evaluation of 5-Lipoxygenase and Cyclo-Oxygenase Inhibitors Using Bovine Neutrophils and Platelets and HPLC", J. Pharm. Pharmacol., 44, 419-424 (1992). LTB4 and 5-HETE concentrations were measured by reversed-phase HPLC with UV detection.

[1] = Unna 1916; cited from earlier work
[2] = test system: LTB4 production in human neutrophils; conditions: depending on cell density, read-out: Inhibition of production of LTB4, IC50; cited from earlier work
[3] = test system: LTB4 production in bovine neutrophils; conditions: read-out: Inhibition of production of LTB4, IC50; cited from earlier work
[4] = therapeutic application; cited from earlier work
[5] = Homo sapiens, HaCaT, HaCaT cells, N = 3, read-out: AA IC50 (antiproliferative activity)
[6] = HaCaT cells, N = 3, read-out: AA IC50 (antiproliferative activity)

Question: What does the source list for `COC(=O)CSC1c2cccc(O)c2C(=O)c2c(O)cccc21` [3-A, reference compound]?
Answer: IC50 (HaCaT cells; [5]): 190000 nM; IC50 (5-LO): 13000 nM

Question: Which IC50 (HaCaT cells; [5]) does the source give for `CCOC(=O)CCSC1c2cccc(O)c2C(=O)c2c(O)cccc21` [Compound 3d] here?
Answer: Its IC50 is 1600 nM.

Question: What about the inhibition at 30 µM (5-LO) of the same compound?
Answer: Its inhibition at 30 µM is 30%.

Question: With `CC(SC1c2cccc(O)c2C(=O)c2c(O)cccc21)C(=O)O` (centres unmarked) [Compound 3b] as the compound, how does the IC50 (HaCaT cells; [5]) read?
Answer: The IC50 was 200 nM.

Question: And the inhibition at 30 µM (5-LO)?
Answer: The inhibition at 30 µM was 28%.

Question: Which IC50 (HaCaT cells; [5]) does the source give for `CCCCOC(=O)CSC1c2cccc(O)c2C(=O)c2c(O)cccc21` [Compound 3a] here?
Answer: Its IC50 is 2100 nM.

Question: What about the inhibition at 30 µM (5-LO) of the same compound?
Answer: Its inhibition at 30 µM is 8%.

Question: With `Nc1cccc(SC2c3cccc(O)c3C(=O)c3c(O)cccc32)c1` [Compound 3m] as the compound, how does the IC50 (HaCaT cells; [5]) read?
Answer: Its IC50 is 1900 nM.

Question: What about the IC50 (5-LO; read-out: 5-LO IC50) of the same compound?
Answer: Its IC50 is 2400 nM.

Question: Which results are given for `O=C1c2c(O)cccc2C(SCc2ccccc2)c2cccc(O)c21` [4A, reference compound]?
Answer: IC50 (HaCaT cells; Homo sapiens, HaCaT, read-out: AA IC50 (antiproliferative activity)): 1400 nM; inhibition at 30 µM (5-LO): 46%

Question: For `O=C1c2ccccc2Cc2cccc(O)c21` [1-hydroxy-9(10H)-anthracenone], which “Therapeutic effect in psoriasis” value [1] is on record?
Answer: Its value is “effective in the treatment of psoriasis”.

Question: Which results are given for `O=C1c2c(O)cccc2C(SCCCS)c2cccc(O)c21` [Compound 3f]?
Answer: IC50 (HaCaT cells; [5]): 770 nM; inhibition at 30 µM (5-LO): 14%

Question: Which IC50 (HaCaT cells; [5]) does the source give for `CCCCOC(=O)CCSC1c2cccc(O)c2C(=O)c2c(O)cccc21` [Compound 3e] here?
Answer: The IC50 was 2300 nM.

Question: And the inhibition at 30 µM (5-LO)?
Answer: The inhibition at 30 µM was 62%.

Question: Which “Therapeutic effect in psoriasis” value [1] does the source give for `O=C1c2c(O)cccc2Cc2cccc(O)c21` [anthralin, 1,8-dihydroxy-9(10H)-anthracenone] here?
Answer: Its value is “effective in the treatment of psoriasis”.

Question: And the IC50 (HaCaT cells; [5])?
Answer: Its IC50 is 600 nM.

Question: And the IC50 [2]?
Answer: The IC50 was 7000 to 74000 nM.

Question: What about the IC50 [3] of the same compound?
Answer: The IC50 was 37000 nM.

Question: And the IC50 (5-LO; read-out: 5-LO IC50)?
Answer: Its IC50 is 37000 nM.

Question: What about the “Irritation / side effects” value [4] of the same compound?
Answer: Its value is “non-affected skin surrounding a psoriatic lesion to which anthralin is applied frequently becomes irritated”.

Question: For `O=C1c2c(O)cccc2C(Sc2cccc(S)c2)c2cccc(O)c21` [Compound 4d], which IC50 (HaCaT cells; [5]) is on record?
Answer: The IC50 was over 5000 nM.

Question: Which results are given for `O=C1c2c(O)cccc2C(Sc2ccc(O)cc2)c2cccc(O)c21` [Compound 4b, 1,8-Dihydroxy-10-[(4-hydroxyphenyl)thio]-9(10H)-anthracenone]?
Answer: IC50 (HaCaT cells; [6]): ≤ 100 nM; IC50 (HaCaT cells; [5]): < 100 nM; IC50 (5-LO; read-out: 5-LO IC50): 2400 nM

Question: What does the source list for `COC(=O)CCSC1c2cccc(O)c2C(=O)c2c(O)cccc21` [Compound 3c]?
Answer: IC50 (HaCaT cells; [5]): 1100 nM; IC50 (5-LO; read-out: 5-LO IC50): 15000 nM

Question: Which “Irritation / side effects” value [4] does the source give for `CCCC(=O)C1c2cccc(O)c2C(=O)c2c(O)cccc21` [butantrone, 10-Butyryl-Dithranol] here?
Answer: The value was “elicits a widespread and delayed irritation effect in many patients”.

Question: Which IC50 (HaCaT cells; [5]) does the source give for `COc1ccccc1SC1c2cccc(O)c2C(=O)c2c(O)cccc21` [Compound 3i] here?
Answer: The IC50 was 4250 nM.

Question: What about the IC50 (5-LO; read-out: 5-LO IC50) of the same compound?
Answer: The IC50 was 6300 nM.

Question: Which results are given for `O=C1c2c(O)cccc2C(Sc2ccccc2S)c2cccc(O)c21` [Compound 4c]?
Answer: IC50 (HaCaT cells; [6]): ≤ 100 nM; IC50 (HaCaT cells; [5]): 100 nM

Question: Which results are given for `O=C1c2c(O)cccc2C(Sc2ccccc2O)c2cccc(O)c21` [Compound 4a]?
Answer: IC50 (HaCaT cells; [5]): 1750 nM; IC50 (5-LO; read-out: 5-LO IC50): 5000 nM

Question: With `COc1ccc(SC2c3cccc(O)c3C(=O)c3c(O)cccc32)cc1` [Compound 3k] as the compound, how does the IC50 (HaCaT cells; [5]) read?
Answer: Its IC50 is 1690 nM.

Question: What about the IC50 (5-LO; read-out: 5-LO IC50) of the same compound?
Answer: Its IC50 is 3200 nM.

Question: With `Nc1ccccc1SC1c2cccc(O)c2C(=O)c2c(O)cccc21` [Compound 3l] as the compound, how does the IC50 (HaCaT cells; HaCaT cells, N = 3, listed as 31, read-out: AA IC50 (antiproliferative activity)) read?
Answer: Its IC50 is at most 100 nM.

Question: What about the IC50 (HaCaT cells; [5]) of the same compound?
Answer: Its IC50 is 100 nM.

Question: And the IC50 (5-LO; read-out: 5-LO IC50)?
Answer: Its IC50 is 2400 nM.

Question: Which IC50 (HaCaT cells; [5]) does the source give for `CCOC(=O)CSC1c2cccc(O)c2C(=O)c2c(O)cccc21` [3-B, reference compound] here?
Answer: The IC50 was 4520 nM.

Question: What about the inhibition at 30 µM (5-LO) of the same compound?
Answer: The inhibition at 30 µM was 42%.

Question: Which IC50 (HaCaT cells; [5]) does the source give for `COc1cccc(SC2c3cccc(O)c3C(=O)c3c(O)cccc32)c1` [Compound 3j] here?
Answer: The IC50 was 1800 nM.

Question: What about the inhibition at 30 µM (5-LO) of the same compound?
Answer: The inhibition at 30 µM was 100%.

Question: Which results are given for `Nc1ccc(SC2c3cccc(O)c3C(=O)c3c(O)cccc32)cc1` [Compound 3n]?
Answer: IC50 (HaCaT cells; [5]): 900 nM; IC50 (5-LO; read-out: 5-LO IC50): 7500 nM
